The results in this text go back to US7838534B2, “Quinuclidine derivatives as M3 antagonists” (Chiesi Farmaceutici S.p.A., priority 2006, dated 2010).

A short description of the series: lung retention after intratracheal administration (lung homogenate, plasma). As to conditions: guinea pig lung; for C48L/C0.5L (amount in the lung 48 hours vs 0.5 hours after administration): intratracheal administration. The series is classed as in vivo. From the text:
MRTL and […]/C0.5L (%) are two meaningful and predictive parameters of the duration of a drug's effect after single dose pulmonary administration.

Turning to `CC(C)[N+]1(C)[C@@H]2CC[C@H]1CC(OC(=O)C(CO)c1ccccc1)C2.[Br-]` (stereo partly drawn) [ipratropium bromide], the “C48L/C0.5L (amount in the lung 48 hours vs 0.5 hours after administration)” value was 0.3%. On to `C[N+]1(C)[C@@H]2C[C@@H](OC(=O)C(O)(c3cccs3)c3cccs3)C[C@H]1[C@@H]1O[C@@H]12` [tiotropium bromide], for which the “C48L/C0.5L (amount in the lung 48 hours vs 0.5 hours after administration)” value is recorded as 2.3%. The MRT (lung homogenate, inhaled or intranasal, intratracheal 10 nmol/kg, read-out: MRTL (Mean Residence Time in the Lung)) was 7.1 h.
